The results in this text go back to patent publication US8569259B2, “Adenosine analogs and their use” (Microdose Therapeutx, Inc., priority 2006, dated 2013).

Like-named read-outs stand apart in the source and are kept apart here. Some results are limits rather than exact numbers.

For assay [1], the system named is male Balb/C mice. Description: Gastric retention and small intestine transit, 30 min after Tc-sulfur colloid meal. Conditions: 30 min after meal, tegaserod 0.1 mg/kg ip, lubiprostone 0.1 mg/kg oral, compound C 50 mg/kg oral; for geometric center (GC) of the small intestine: 1-way ANOVA or Student's t-test, FIG. 3; for stomach retention, percentage of total radioactivity left in the stomach: FIG. 5. Format: in vivo. Here is the method: Male Balb/C mice were fasted overnight with free access to water. Water was then removed for 30 minutes. Each mouse was subsequently gavaged a liquid meal of 0.5% methylcellulose (weight-to-volume w/v) and 10% corn oil (volume-to-volume v/v) in water containing 5-10 μCi of an non-absorbable Tc-sulfur colloid radioactive marker as well as compound C at doses between 2 and 50 mg/kg (10 mL/kg), or lubiprostone at 100 μg/kg. A group was dosed with tegaserod (100 μg/kg) injected ip just prior to receiving vehicle by oral gavage. Control animals received vehicle only. Animals were euthanized 30 minutes after dosing and their GI tract was excised from the stomach down. The stomach was counted alone. The small intestine was extended and cut into 10 equally sized pieces, labeled 1 to 10 from stomach to caecum. Each piece of the small intestine, and the stomach, were counted for radioactivity. The geometric center (GC) of the small intestine was calculated according to GC=(Σ(i×Ci))/(ΣCi), where i is the label of the segment (from 1 to 10) and Ci is the number of counts. GC is a number between 1 and 10. The closer GC is to 10, the faster the small intestinal transit. Gastric retention was calculated as percent of total dose counted. GC's and gastric retentions were compared between dose and vehicle groups using a Student's t-test. A P-value of less than 0.05 was considered statistically significant, as depicted in FIGS. 3-5.

The test system of assay [2] is male Balb/C mice. The assay is described as follows: Total gastrointestinal transit, carmine red dye meal, time to first red pellet and feces weight. Format: in vivo. The following applies: oral gavage 5 and 50 mg/kg. Here is the method:
Briefly, mice were administered a meal containing a non-absorbable red dye (carmine) and were monitored for 3 hours. Feces were collected and time of expulsion was recorded. Feces were weighed fresh and again after overnight drying. Time to first red-colored feces was used as a measure of total GI transit time. Total weight of wet and dry feces was used as a measure of fluid secretion.
Male Balb/C mice were fasted overnight with free access to water. They were then given access to food and water for 30 minutes. They were finally moved to empty plastic cages with no access to food or water. After 1 hour, each mouse was fed a liquid meal of 0.5% methylcellulose (weight-to-volume w/v) in water containing 3% carmine dye (w/v) as well as doses of the test compound at 5 and 50 mg/kg (10 mL/kg) with a gavage needle. Control animals received vehicle only. Each animal was held in an individual cage for the following 3 hours. The expulsion time of each feces was recorded to the nearest 5 seconds. Each feces was placed in a tared vial and the vial was capped. Fresh feces were weighed and the vials were kept uncapped overnight at 37° C. The feces were then weighed again. Average times to first red-colored feces for vehicle- and compound-dosed animals were compared using a Student's t-test (two-sided, unequal variance). A P-value of 0.05 or less was considered statistically significant. […]

Assay [3] deals with T1, P2Y2 receptor (Homo sapiens, UniProt P41231).
T1 construct: host or cells: cells not identified for the IP1 assay
T1 sequence (P41231 whole entry): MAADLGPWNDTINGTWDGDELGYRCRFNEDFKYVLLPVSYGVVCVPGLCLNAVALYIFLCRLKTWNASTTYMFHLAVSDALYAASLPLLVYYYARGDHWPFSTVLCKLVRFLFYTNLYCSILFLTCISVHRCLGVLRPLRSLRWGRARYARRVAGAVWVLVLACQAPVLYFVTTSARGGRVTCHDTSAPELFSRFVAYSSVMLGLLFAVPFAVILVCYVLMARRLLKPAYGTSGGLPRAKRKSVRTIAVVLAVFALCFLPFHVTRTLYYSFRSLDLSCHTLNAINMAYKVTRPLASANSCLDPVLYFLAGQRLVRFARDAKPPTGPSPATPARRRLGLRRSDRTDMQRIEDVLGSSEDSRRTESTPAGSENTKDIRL
The assay is described as follows: IP1 accumulation assay (kit IP-one HTRF). Format: cell-based. Here is the method:
The compounds described herein may be tested for their ability to elicit P2Y2 receptor activity using in vitro IP1 accumulation, intracellular calcium mobilization, mucus production and ciliary beat frequency assays, ex vivo Short Current Circuit and fluid transport assays for P2Y2 and other P2Y receptor activity assays, as described below.
Cells in midlog phase are collected with PBS-EDTA, washed and resuspended in medium without antibiotics at a concentration of 2×10^5 cells/ml. Cells (200 μL or 40.000 cells) are then distributed into a 96 well plate (Cellstar, Greiner, 655083). The plate is incubated overnight at 37° C. in a cell culture incubator. The next morning, the medium is removed and replaced by 50 μL of agonist diluted in the stimulation buffer provided with the kit IP-one (CisBio, 621P1PEB). The plate is incubated for 1 h at 37° C. in a cell culture incubator. 25 μL of the antibody diluted in lysis buffer is then added to each well. 25 μL of the IP1-d2 diluted in lysis buffer is added to each well and the plate is incubated for 1 h. at room temperature. The plate is then read on a Rubystar and dose-response curves are generated by plotting the ligand concentrations versus the DeltaF ratio.
EC50 values for certain compounds were obtained through an IP1 accumulation assay (kit IP-one HTRF), as described above.
On the technique in general: Time-resolved FRET reads energy transfer from a long-lived donor to a nearby acceptor.

Assay [4] relates to male Balb/C mice. The assay is described as follows: Large intestine transit, 2.5 hr after Tc-sulfur colloid meal. Format: in vivo. The following applies: 2.5 hr after meal; for gastric retention (percentage of total radioactivity left in stomach): compound C up to 50 mg/kg oral, lubiprostone 0.1 mg/kg oral, FIG. 6. Here is the method: Male Balb/C mice were fasted overnight with free access to water. Water was then removed for 30 min. Each mouse was subsequently gavaged a liquid meal of 0.5% methylcellulose (weight-to-volume w/v) and 10% corn oil (volume-to-volume v/v) in water containing 5-10 μCi of an non-absorbable Tc-sulfur colloid radioactive marker containing the compound C at doses of 5, 10 and 50 mg/kg (10 mL/kg), or lubiprostone at 100 μg/kg. A group was dosed with tegaserod (100 μg/kg) injected ip just prior to receiving vehicle by oral gavage. Control animals received vehicle only. Animals were kept for 30 minutes in empty cages then given access to food and water at libitum. They were euthanized 2.5 hours after dosing and their GI tract was excised from the stomach down. The stomach and small intestine were counted alone. The large intestine was extended and cut into 3 equally sized pieces, labeled 1 to 3 from caecum to rectum. Each section was counted individually. Feces, labeled 4, were collected, weighed, and counted. The geometric center (GC) of the large intestine/feces portion of the GI tract was calculated according to GC=(Σ(i×Ci))/(ΣCi), where i is the label of the segment (from 1 to 4) and Ci is the number of counts. GC is a number between 1 and 4. The closer GC is to 4, the faster the intestinal transit. Between 7 and 12 mice were used for each dose group. Gastric retention was calculated as percent of total dose counted. Gastric retentions between compound-dosed and vehicle-dosed animals were compared using a one-way ANOVA test and a Dunnett post-test. GC's and feces weights were compared between compound- and vehicle-dosed animals using a similar statistical methodology. In all cases, a P-value of less than 0.05 was considered statistically significant.

The mark [5] stands for this setting: compound falls in class +++, read-out: EC50, class +++ (<500 nM).
The mark [6] stands for this setting: X = compound falls in class +, read-out: EC50, class + (>1000 nM).

As to `[H]/N=C(/NCCCCC)N/N=C/c1c[nH]c2ccc(OC)cc12` [tegaserod], in assay [1], the “geometric center (GC) of the small intestine” value is listed as “No statistical significance was observed” and the “stomach retention, percentage of total radioactivity left in the stomach” value (“stomach retention, percentage” below) is recorded as “statistically significance for tegaserod versus vehicle using Student's t-test”.

For `COc1ccc(O[C@@H]2O[C@H](COP(=O)(O)OP(=O)(O)OP(=O)(O)OP(=O)(O)OC[C@H]3O[C@@H](n4cnc5c(=N)n(C)cnc54)[C@H](O)[C@@H]3O)[C@@H](O)[C@H]2O)cc1` [Compound C], in assay [1], the “geometric center (GC) of the small intestine” value is “No statistical significance was observed” and the “stomach retention, percentage” value is “No statistical significance was found”. Also, the “total weight of feces (wet, dry) and water content produced during 3 hours” value in assay [2] (3 hrs after dosing, FIG. 2) is “dose-dependent increase in wet, and dry feces, as well as in water content”. For the same compound, the “time to first red-colored feces (total GI transit time)” value in assay [2] (vs vehicle, FIG. 1) is “time to first red pellet decreases with increasing dose”. Further, the EC50 in assay [3] (setting [5]) is < 500 nM. Also, the “gastric retention (percentage of total radioactivity left in stomach)” value in assay [4] is on record as “virtually no effect on gastric retention”. In addition, the “geometric center (GC) of the large intestine and feces” value in assay [4] (oral 5, 10 and 50 mg/kg, FIG. 7) is “calculated large intestine geometric center increases with increasing dose”. For the same compound, the “percentage of total radioactivity found in the feces” value in assay [4] (oral 5, 10 and 50 mg/kg, FIG. 8) is “dose-dependent increase of % total radioactivity starting at 5 mg/kg dose at a percentage equivalent to that obtained with lubiprostone and tegaserod”. In addition, in assay [4] (oral, P<0.05 vs vehicle), the “dose with statistically significant effect on large intestine transit” value is ≥ 10 mg/kg. Moreover, the “geometric center (GC) of the large intestine, effect compared with reference drugs” value in assay [4] (compound C 5 mg/kg oral) was “equivalent to that obtained with doses of lubiprostone (0.1 mg/kg) and tegaserod (0.1 mg/kg)”.

Turning to `CCCCC(F)(F)[C@@]1(O)CC[C@H]2[C@@H](CC(=O)[C@@H]2CCCCCCC(=O)O)O1` [lubiprostone], in assay [1], the “geometric center (GC) of the small intestine” value was “No statistical significance was observed” and the “stomach retention, percentage” value is reported as “No statistical significance was found”. Besides, the “gastric retention (percentage of total radioactivity left in stomach)” value in assay [4] is listed as “significant delay in gastric emptying”.

On to `COc1ccc(O[C@@H]2O[C@H](COP(=O)(O)OP(=O)(O)OP(=O)(O)OP(=O)(O)OC[C@H]3O[C@@H](c4c[nH]c(=O)[nH]c4=O)[C@H](O)[C@@H]3O)[C@@H](O)[C@H]2O)cc1` [Compound N], for which the EC50 in assay [3] (X in this column = compound falls in class ++, read-out: EC50, class ++ (500-1000 nM)) fell in the range of 500 to 1000 nM.

Take `O=P(O)(O)OP(=O)(O)OP(=O)(O)OC[C@H]1O[C@@H](Oc2cccnc2)[C@H](O)[C@@H]1O` [Compound M, 3-Pyridyl-β-D-ribofuranosid-5′-triphosphate]: the half-maximal effective concentration (EC50) in assay [3] (setting [6]) was > 1000 nM.

As for `COc1ccc(N(C)C[C@@H]2O[C@H](COP(=O)(O)OP(=O)(O)OP(=O)(O)O)[C@@H](O)[C@H]2O)cc1` [Compound J, ((2R,3S,4R)-3,4-dihydroxy-5-(((4-methoxyphenyl)(methyl)amino)methyl)tetrahydrofuran-2-yl)methyltriphosphoric acid], the EC50 in assay [3] (setting [6]) was > 1000 nM.

Consider `CNc1c2ncn([C@@H]3O[C@H](COP(=O)(O)OP(=O)(O)OP(=O)(O)OP(=O)(O)OC[C@H]4O[C@@H](Oc5ccc(OC)cc5)[C@H](O)[C@@H]4O)[C@@H](O)[C@H]3O)c2nc[n+]1C` [Compound D], for which the concentration for a half-maximal effect (EC50) in assay [3] (setting [5]) is < 500 nM.

On to `COc1ccc(O[C@@H]2O[C@H](COP(=O)(O)OP(=O)(O)OP(=O)(O)OC[C@H]3O[C@@H](n4cnc5c(=N)n(C)cnc54)[C@H](O)[C@@H]3O)[C@@H](O)[C@H]2O)cc1` [Compound E], for which the EC50 in assay [3] (setting [6]) is > 1000 nM.

Turning to `O=P(O)(O)OP(=O)(O)OP(=O)(O)OC[C@H]1O[C@@H](CNc2cccnc2)[C@H](O)[C@@H]1O` [Compound K, ((2R,3S,4R,5S)-3,4-Dihydroxy-5-((pyridin-3-ylamino)methyl)tetrahydrofuran-2-yl)methyltriphosphoric acid], the EC50 in assay [3] (setting [6]) was > 1000 nM.

Regarding `Cn1cnc2c(ncn2[C@@H]2O[C@H](COP(=O)(O)OP(=O)(O)OP(=O)(O)O)[C@@H](O)[C@H]2O)c1=N` [Compound P, 1-Methyl-Adenosine-5′-triphosphate], in assay [3] (setting [5]), the EC50 was < 500 nM.

What is called EC50 is the concentration that produces a half-maximal response.
